Test results as given in article PMC4403932 (Journal of Medicinal Chemistry, 2015).
Where two headings read alike, the source gives them in different places.

Columns and labels:
Type in all cases: binding
BRD9 [1] = target: T1, BRD9 (Homo sapiens, UniProt Q9H8M2); assay: Protein stability (thermal) shift assay, BRD9; conditions: compound 10 μM, protein 2 μM; average of triplicate; read-out: ΔTm Shift, BRD9
T1 construct: made in house
T1 sequence (Q9H8M2 136-240 limits assumed): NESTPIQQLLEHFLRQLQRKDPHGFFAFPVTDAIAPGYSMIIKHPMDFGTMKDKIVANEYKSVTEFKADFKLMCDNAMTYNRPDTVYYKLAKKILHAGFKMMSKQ
Method: (§1) Thermal melting experiments were carried out using an Mx3005p real time PCR machine (Stratagene). Proteins were buffered in 10 mM HEPES, pH 7.5, 500 mM NaCl and assayed in a 96-well plate at a final concentration of 2 μM in 20 μL volume. Compounds were added at a final concentration of 10 or 100 μM. SYPRO Orange (Molecular Probes) was added as a fluorescence probe at a dilution of 1 in 1000. Excitation and emission filters for the SYPRO-Orange dye were set to 465 and 590 nm, respectively. The temperature was raised with a step of 3 °C per minute from 25 to 96 °C, and fluorescence readings were taken at each interval. The temperature dependence of the fluorescence during the protein denaturation process was approximated by the equation [drawing 1] where ΔuG is the difference in unfolding free energy between the folded and unfolded state, R is the gas constant, and yF and yU are the fluorescence intensity of the probe in the presence of completely folded and unfolded protein, respectively.[65] The baselines of the denatured and native states were approximated by a linear fit. The observed temperature shifts, ΔTm^obs, were recorded as the difference between the transition midpoints of sample and reference wells containing protein without ligand in the same plate and determined by nonlinear least-squares fit. Temperature shifts (ΔTm^obs) for three independent measurements per proteins/compound are summarized in Supporting Information Table S1.

BRD4(1) = target: T2, BRD4(1) (Homo sapiens, UniProt O60885); assay: Protein stability (thermal) shift assay, BRD4(1); conditions: compound 10 μM, protein 2 μM; average of triplicate; read-out: ΔTm Shift, BRD4(1)
T2 construct: made in house
Method: as §1

BRDT(1) = target: T3, BRDT(1) (Homo sapiens, UniProt Q58F21); assay: Protein stability (thermal) shift assay, BRDT(1); conditions: compound 10 μM, protein 2 μM; average of triplicate
T3 construct: made in house
Method: as §1

BRDT(2) = target: T4, BRDT(2) (Homo sapiens, UniProt Q58F21); assay: Protein stability (thermal) shift assay, BRDT(2)
T4 construct: made in house
Method: as §1

BRD2(1) = target: T5, BRD2(1) (Homo sapiens, UniProt P25440); assay: Protein stability (thermal) shift assay, BRD2(1); conditions: compound 10 μM, protein 2 μM; average of triplicate
T5 construct: Fragments were tested in a thermal shift assay against bromodomains of the BET subfamily; made in house
Method: as §1

[2] = test system: human bromodomains (panel); assay: Protein stability (thermal) shift assay, whole panel of human bromodomains; conditions: 10 μM compound
Method: as §1

PCAF = target: T6, PCAF (Homo sapiens, UniProt Q92831); assay: Protein stability (thermal) shift assay, PCAF; conditions: compound 10 μM, protein 2 μM; average of triplicate
T6 construct: representative BRDs from other structural subfamilies (family I, PCAF); made in house
T6 sequence (Q92831 723-827 limits assumed): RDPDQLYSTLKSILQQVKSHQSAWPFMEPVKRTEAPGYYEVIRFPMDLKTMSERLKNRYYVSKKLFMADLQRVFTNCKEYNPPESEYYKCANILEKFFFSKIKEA
Method: as §1

PB1(5) = target: T7, PB1(5) (Homo sapiens, UniProt Q86U86); assay: Protein stability (thermal) shift assay, PB1(5); conditions: compound 10 μM, protein 2 μM; average of triplicate
T7 construct: made in house
Method: as §1

BRD3(1) = target: T8, BRD3(1) (Homo sapiens, UniProt Q15059); assay: Protein stability (thermal) shift assay, BRD3(1); conditions: compound 10 μM, protein 2 μM; average of triplicate
T8 construct: Fragments were tested in a thermal shift assay against bromodomains of the BET subfamily; made in house
Method: as §1

BAZ2B = target: T9, BAZ2B (Homo sapiens, UniProt Q9UIF8); assay: Protein stability (thermal) shift assay, BAZ2B; conditions: compound 10 μM, protein 2 μM; average of triplicate; read-out: ΔTm Shift, BAZ2BA
T9 construct: representative BRDs from other structural subfamilies (family I, PCAF); family III, CREBBP; family IV, BRD9; family V, BAZ2B; made in house
T9 sequence (Q9UIF8 2060-2164 limits assumed): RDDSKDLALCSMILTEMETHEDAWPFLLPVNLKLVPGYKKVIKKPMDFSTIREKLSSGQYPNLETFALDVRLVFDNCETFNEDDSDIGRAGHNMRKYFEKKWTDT
Method: as §1

BRD2(2) = target: T10, BRD2(2) (Homo sapiens, UniProt P25440); assay: Protein stability (thermal) shift assay, BRD2(2); conditions: compound 10 μM, protein 2 μM; average of triplicate
T10 construct: made in house
Method: as §1

CREBBP = target: T11, CREBBP (Homo sapiens, UniProt Q92793); assay: Protein stability (thermal) shift assay, CREBBP
T11 construct: small thermal shits (1.0–1.3 °C) for the bromodomain of CREBBP; made in house
Method: as §1

BRD4(2) = target: T12, BRD4(2) (Homo sapiens, UniProt O60885); assay: Protein stability (thermal) shift assay, BRD4(2); conditions: compound 10 μM, protein 2 μM; average of triplicate
T12 construct: made in house
Method: as §1

BRD3(2) = target: T13, BRD3(2) (Homo sapiens, UniProt Q15059); assay: Protein stability (thermal) shift assay, BRD3(2); conditions: compound 10 μM, protein 2 μM; average of triplicate
T13 construct: made in house
Method: as §1

BRD9 [3] = target: T1, BRD9; assay: Isothermal titration calorimetry, BRD9; conditions: ITC, 50 mM HEPES pH 7.5, 150 mM NaCl, 15 °C, reverse titration, triplicate
Method: Experiments were carried out on an ITC200 titration microcalorimeter from MicroCal, LLC (GE Healthcare) equipped with a Washing module, with a cell volume of 0.2003 mL, and a 40 μL microsyringe. Experiments were carried out at 15 °C while stirring at 1000 rpm, in ITC buffer (50 mM HEPES, pH 7.5 (at 25 °C), 150 mM NaCl). The microsyringe was loaded with a solution of the protein sample (300−740 μM protein for BRD9 and BRD4(1), respectively, in ITC buffer) and was carefully inserted into the calorimetric cell which was filled with an amount of the ligand (0.2 mL, 20–25 μM in ITC buffer). The system was first allowed to equilibrate until the cell temperature reached 15 °C, and an additional delay of 60 s was applied. All titrations were conducted using an initial control injection of 0.3 μL followed by 38 identical injections of 1 μL with a duration of 2 s (per injection) and a spacing of 120 s between injections. The titration experiments were designed in such a fashion as to ensure complete saturation of the proteins before the final injection. The heat of dilution for the proteins was independent of their concentration and corresponded to the heat observed from the last injection, following saturation of ligand binding, thus facilitating the estimation of the baseline of each titration from the last injection. The collected data were corrected for protein heats of dilution (measured on separate experiments by titrating the proteins into ITC buffer) and deconvoluted using the MicroCal Origin software supplied with the instrument to yield enthalpies of binding (ΔH) and binding constants (KB) in the same fashion as that previously described in detail by Wiseman and co-workers.[66] Thermodynamic parameters were calculated using the basic equation of thermodynamics (ΔG = ΔH – TΔS = −RT ln KB, where ΔG, ΔH, and ΔS are the changes in free energy, enthalpy, and entropy of binding, respectively). In all cases a single binding site model was employed, supplied with the MicroCal Origin software package.

[4] = compound 10 μM, protein 2 μM, average of triplicate, read-out: ΔTm Shift, BRDT(2)
[5] = compound 10 μM, protein 2 μM, average of triplicate, read-out: ΔTm Shift, CREBBP
[6] = thermal shift, 10 μM compound, 2 μM protein, read-out: ΔTm

T5 sequence (P25440 74-180 limits assumed): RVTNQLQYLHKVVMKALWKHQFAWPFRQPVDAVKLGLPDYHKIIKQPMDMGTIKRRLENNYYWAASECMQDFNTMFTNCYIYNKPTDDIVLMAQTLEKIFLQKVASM
T10 sequence (P25440 344-453 limits assumed): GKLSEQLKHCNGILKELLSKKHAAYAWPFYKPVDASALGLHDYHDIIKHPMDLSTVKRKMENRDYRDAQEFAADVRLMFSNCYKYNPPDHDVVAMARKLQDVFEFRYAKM
T13 sequence (Q15059 306-415 limits assumed): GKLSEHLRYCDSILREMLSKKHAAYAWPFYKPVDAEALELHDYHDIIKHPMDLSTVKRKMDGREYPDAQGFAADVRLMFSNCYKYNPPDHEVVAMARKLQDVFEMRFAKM
T11 sequence (Q92793 1085-1192 limits assumed): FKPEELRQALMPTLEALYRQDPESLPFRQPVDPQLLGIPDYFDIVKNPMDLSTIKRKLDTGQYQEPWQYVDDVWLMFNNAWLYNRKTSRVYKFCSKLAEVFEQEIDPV
T8 sequence (Q15059 34-140 limits assumed): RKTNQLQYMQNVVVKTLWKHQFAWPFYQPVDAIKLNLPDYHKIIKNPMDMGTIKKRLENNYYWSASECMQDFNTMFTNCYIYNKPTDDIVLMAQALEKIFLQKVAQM
T7 sequence (Q86U86 653-763 limits assumed): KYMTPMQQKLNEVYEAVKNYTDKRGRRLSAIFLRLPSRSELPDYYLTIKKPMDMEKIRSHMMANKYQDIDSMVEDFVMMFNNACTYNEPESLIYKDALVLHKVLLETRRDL

SMILES	ΔTm at 10 µM (BRD9 [1]) [°C]	ΔTm at 10 µM (BRD4(1)) [°C]	ΔTm at 10 µM (BRDT(1)) [°C]	ΔTm at 10 µM (BRDT(2); [4]) [°C]	ΔTm at 10 µM (BRD2(1)) [°C]	binding to the bromodomain panel in the ΔTm assay (in words) [2]	ΔTm at 10 µM (PCAF) [°C]	ΔTm at 10 µM (PB1(5)) [°C]	ΔTm at 10 µM (BRD3(1)) [°C]	ΔTm at 10 µM (BAZ2B) [°C]	ΔTm at 10 µM (BRD2(2)) [°C]	ΔTm at 10 µM (CREBBP; [5]) [°C]	ΔTm at 10 µM (BRD4(2)) [°C]	ΔTm at 10 µM (BRD3(2)) [°C]	ΔTm at 10 µM (CREBBP; [6]) [°C]	KD (BRD9 [3])	ΔTm at 10 µM (BRDT(2); [6]) [°C]
COc1ccc(-c2nc(N)nc3c2ncn3C)cc1 [Compound 3c, 2-Amino-6-(4-methoxyphenyl)-9-methylpurine]	-0.32	-0.7	-0.7	-2.5	-1	very weak or no binding	-1.1	-0.0233	-1	-1.3	-0.5	1.1	-3.8	-0.7	–	–	–
Cn1cnc2c(-c3ccc(Oc4ccccc4)cc3)nc(N)nc21 [Compound 3e, 2-Amino-6-(4-phenoxyphenyl)-9-methylpurine]	0.257	1	0.6	1.2	0.32	very weak or no binding	1	0.8	0.743	0.6	0.463	1.3	0.8	0.8	–	–	–
Cn1cnc2c(-c3cccc(OCc4ccc(Cl)cc4)c3)nc(N)nc21 [Compound 4e, 2-Amino-6-(3-(4′-chlorobenzyloxy)phenyl)-9-methylpurine]	–	0.177	0.273	-0.163	-0.15	very weak or no binding	0.143	0.5	-0.0167	0.6	0.6	0.9	0.2	0.223	1 to 1.3	–	–
CCCCOc1cc(Br)cc(-c2nc(N)nc3c2ncn3C)c1 [Compound 5b, 2-Amino-6-(3-bromo-5-butoxyphenyl)-9-methylpurine]	-0.56	0.633	0.45	1	-0.153	very weak or no binding	0.9	0.5	0.227	0.217	0.163	1.3	0.373	0.5	–	no binding/weak	–
COc1ccc(Br)cc1-c1nc(N)nc2c1ncn2C [Compound 8b, 2-Amino-6-(5-bromo-2-methoxyphenyl)-9-methylpurine]	–	0.323	0.4	0.0167	0.163	completely abolished bromodomain binding	0.9	0.7	0.147	0.6	0.6	0.74	0.337	0.467	–	no binding/weak	–
COc1ccc(Br)cc1-c1nc(N)nc2c1ncn2CC(C)=O [Compound 8c, 2-Amino-6-(5-bromo-2-methoxyphenyl)-9-(2-oxopropyl)-purine]	-0.109	0.24	0.151	0.571	0.0207	could not be tolerated	-0.6	0.243	0.275	-0.06	0.0227	-0.07	-0.431	0.535	–	–	–
COc1ccc(F)cc1-c1nc(O)nc2[nH]cnc12 [Compound 8d, 6-(5-Fluoro-2-methoxyphenyl)-2-hydroxy-9H-purine]	-0.8	0.9	0.9	0.368	1	lost affinity across the panel	0.535	0.564	0.9	0.277	0.5	0.34	0.7	0.187	–	–	–
COc1ccc(Br)cc1-c1nc(O)nc2[nH]cnc12 [Compound 8f, 6-(5-Bromo-2-methoxyphenyl)-2-hydroxy-9H-purine]	-0.66	1.2	0.653	1	1	lost affinity across the panel	0.378	0.8	0.55	0.563	0.5	0.6	0.7	0.853	–	–	–
COc1ccc(F)cc1-c1ncnc2[nH]c(C)nc12 [Compound 9b, 6-(5-Fluoro-2-methoxyphenyl)-8-methyl-9H-purine]	0.8	0.0286	0.2	–	0.0729	very low affinity for all bromodomains	-1.5	0.0705	0.2	0.2	0.9	0.259	0.148	0.341	–	–	2.9
